In the NIST ThermoML archive (doi:10.1021/je050156k):

Settings: Liquid; for mass density: 101.33 kPa; for vapor or sublimation pressure: Closed cell (Static) method

C1CCC2OC2C1 (stereo unspecified) [7-oxabicyclo[4.1.0]heptane]
Settings	mass density [kg/m3]	vapor or sublimation pressure [kPa]
277.7 K	988.4	–
289 K	978	–
293.2 K	972.2	–
303.2 K	963.8	–
313.2 K	955	–
323.2 K	944.8	–
333.2 K	935.4	–
343.2 K	925.5	–
353.2 K	915.7	–
360.91 K	–	25.5
361.13 K	–	25.8
363.2 K	903.9	–
382.47 K	–	52.4
383.09 K	–	53.6
404.87 K	–	101.3
405.48 K	–	103.8
423.87 K	–	167
443.95 K	–	268
453.99 K	–	333
463.99 K	–	409
474.03 K	–	497
